Assay results reported in publication PMC10460844, “Real‐Time Monitoring of Multitarget Antimicrobial Mechanisms of Peptoids Using Label‐Free Imaging with Optical Diffraction Tomography” (Advanced Science, 2023).
In brackets after ≈: the same amount, converted by molar mass. Read-outs that look alike come from different tables or passages of the source. Square brackets hold non-standard residues; d marks the D form. Peptide text beside a SMILES is read from it. Gly(N(CH2)2(3-indolyl)) = O=C(O)CNCCc1c[nH]c2ccccc12; Nspe = C[C@H](NCC(=O)O)c1ccccc1; Nlys = NCCCCNCC(=O)O

Legend:
[1] = test system: rat erythrocytes; test: Hemolysis assay; assay type: cell-based
Summary of the method: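 Washed Sprague-Dawley rat erythrocytes (10% suspension in PBS pH 7.4) mixed with peptoids (0–100 µM), 60 min at 37 °C; supernatant A540 expressed as % of 1% Triton X-100 lysis. HC10/HC50 are concentrations giving 10%/50% hemolysis; Hmax is hemolysis at 100 µM.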

[2] = test system: E. faecium KCTC 13225; assay type: cell-based
[3] = Analytical reversed-phase HPLC elution (hydrophobicity); assay type: physicochemical; settings: Table 1; analytical RP-HPLC, SunFire C18 […] 250 mm, water/ACN + 0.1% TFA, 5% B 2 min then linear to 100% B over 30 min, 1 mL/min, UV 220 nm; used as measure of hydrophobicity
Summary of the method: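 Retention time (tR) reflects hydrophobicity, with detection at 220 nm. Elution used a 5–100% acetonitrile linear gradient over 30 min after a 2 min hold at 5%, then 5 min at 100%, with both phases containing 0.1% TFA. Column was an analytical C18 (4.6 × 250 mm, 5 μm) run at 1 mL/min.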

[4] = test system: P. aeruginosa KCTC 1637; assay type: cell-based
[5] = test system: S. aureus ATCC 25923; assay type: cell-based, Staphylococcus aureus
Summary of the method: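 In cation-adjusted Mueller Hinton broth 2 supplemented with 0.02% BSA and 0.001% acetic acid, about 2–5 × 10^5 CFU mL^−1 bacteria met peptoid at 25 µM and five lower two-fold dilutions. The MIC is the lowest concentration without turbidity, from triplicate determinations.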

[6] = test system: S. typhimurium SL 1344; assay type: cell-based
[7] = test system: E. coli ML-35 cells; test: ONPG hydrolysis assay (inner membrane); assay type: cell-based; settings: 1.5 mM ONPG, 10 mM sodium phosphate pH 7.4, absorbance 405 nm
Procedure: The permeability of the inner membrane was determined using E. coli ML-35 cells […]
The intact bacterial inner membrane is non-permeable to o-nitrophenyl-β-D-galactopyranoside (OPNG), a chromogenic substrate of the β-galactosidase.
Following damage to the inner membrane, OPNG enters the cells and is metabolized by β-galactosidase creating a chromogenic […]. E. coli cells were washed in 10 mM sodium phosphate (pH 7.4) containing 100 mM NaCl and resuspended in the same buffer at a final concentration of OD600 = 0.5 containing 1.5 mM ONPG. The hydrolysis of ONPG and generation of o-nitrophenol over time were monitored as absorbance change at 405 nm following the addition of peptoids. […]

[8] = test system: E. coli ATCC 25922; test: NPN uptake assay (outer membrane); assay type: cell-based; settings: E. coli ATCC 25922, 5 mM HEPES pH 7.2, 10 µM NPN, fluorescence
Procedure: 14. In vitro biological assays […]
The ability of peptoids to increase the permeability of the outer membrane of Gram-negative bacteria was determined by measuring the incorporation of the NPN fluorescent dye into the outer membrane of E. coli ATCC 25922. Bacterial cells were suspended to a final concentration of OD600 = 0.05 in 5 mM HEPES buffer, pH 7.2, containing 5 mM KCN. Then […]
200 μL NPN dye was added to wells of a 96 well plate to produce a final concentration of 10 μM, and the background fluorescence was recorded (λex = 350 nm, λem = 420 nm). Aliquots of peptoids were added to the well, and fluorescence was recorded as a function of time until there was no further increase in fluorescence. Increases of the permeability of the outer membrane after the addition of peptoids was reflected by increased fluorescence values as a result of NPN incorporation into the membrane. […]

[9] = Table S2, broth dilution, MHB2, 37 °C 24 h, max 25 µM, mean of triplicate
[10] = Table S3, counter-ion exchange series, mean of triplicate

Row | Structure (SMILES) | HPLC elution (%ACN) [3] | MIC S. aureus ATCC25923 [5, 9] | MIC S. aureus ATCC25923 [5, 10] | inner membrane disruption (ONPG hydrolysis) [7] | outer membrane disruption (NPN uptake) [8] | H max (100 µM) [1] | HC10 ([1]; pH 7.4) | HC50 ([1]; pH 7.4) | HC10 ([1]; red cells of rat) | MIC E. faecium KCTC 13225 ([2]; KCTC 13225) | MIC P. aeruginosa KCTC 1637 ([4]; KCTC 1637) | MIC S. typhimurium SL 1344 ([6]; SL 1344) | other results
1 | C[C@@H](c1ccccc1)N(CC(N)=O)C(=O)CN(C(=O)CN(CCCCN)C(=O)CN(C(=O)CN(C(=O)CN(CCCCN)C(=O)CN(C(=O)CN(C(=O)CN(CCCCN)C(=O)CN(C(=O)CN(C(=O)CNCCCCN)[C@@H](C)c1ccccc1)[C@@H](C)c1ccccc1)[C@@H](C)c1ccccc1)[C@@H](C)c1ccccc1)[C@@H](C)c1ccccc1)[C@@H](C)c1ccccc1)[C@@H](C)c1ccccc1 [peptoid 1, reference compound] (H-[Nlys][Nspe][Nspe][Nlys][Nspe][Nspe][Nlys][Nspe][Nspe][Nlys][Nspe][Nspe]-NH2) | 54.5 %ACN | 1.6 µM (≈ 2.91 µg/mL) | 1.6 µM (≈ 2.91 µg/mL) | strongly disrupted | strongly disrupted |  |  |  |  |  |  |  | HC10 ([1]; Table S2, 10% hemolysis in rat erythrocytes, PBS pH 7.4, 37 °C 60 min, mean of triplicate): 8.3 µM; HC50 ([1]; Table S2, 50% hemolysis in rat erythrocytes, PBS pH 7.4, 37 °C 60 min, mean of triplicate): 22.9 µM; HC10 ([1]; Table S3, counter-ion exchange series, 10% hemolysis in rat erythrocytes, mean of triplicate): 15.9 µM; HC50 ([1]; Table S3, counter-ion exchange series, 50% hemolysis in rat erythrocytes, mean of triplicate): 49.0 µM; Hmax (100 µM) ([1]; Table S3, counter-ion exchange series, hemolysis at 100 µM): 72.1±2.1%; H max (100 µM) ([1]; percentage of hemolysis at the highest concentration tested (100 µM), rat erythrocytes): 112.3 ± 0.7%; MIC E. faecium KCTC 13225 ([2]; gram-positive pathogenic strain, mean of triplicates): <0.8 µM; MIC P. aeruginosa KCTC 1637 ([4]; gram-negative pathogenic strain, maintained in refined LB media, mean of triplicates): 6.3 µM (≈ 11.5 µg/mL); MIC S. typhimurium SL 1344 ([6]; gram-negative pathogenic strain, mean of triplicates): 25 µM (≈ 45.5 µg/mL)
2 | C[C@@H](c1ccccc1)N(CC(=O)N(CCCCN)CC(=O)N(CC(=O)N(CC(=O)N(CCCCN)CC(=O)N(CC(=O)N(CC(=O)N(CCCCN)CC(=O)N(CCc1c[nH]c2ccccc12)CC(=O)N(CCc1c[nH]c2ccccc12)CC(N)=O)[C@@H](C)c1ccccc1)[C@@H](C)c1ccccc1)[C@@H](C)c1ccccc1)[C@@H](C)c1ccccc1)C(=O)CN(C(=O)CNCCCCN)[C@@H](C)c1ccccc1 [peptoid 11] (H-[Nlys][Nspe][Nspe][Nlys][Nspe][Nspe][Nlys][Nspe][Nspe][Nlys][Gly(N(CH2)2(3-indolyl))][Gly(N(CH2)2(3-indolyl))]-NH2) | 54.0 %ACN | 1.6 µM (≈ 3.04 µg/mL) | 1.6 µM (≈ 3.04 µg/mL) | strongly disrupted | strongly disrupted | 103.4 ± 3.2% | 8.3 µM | 22.2 µM | 6.9 µM | <0.8 µM | 3.1 µM (≈ 5.88 µg/mL) | 25 µM (≈ 47.4 µg/mL) | Hmax (100 µM) [1]: 111.9±2.7%; HC50 ([1]; red cells of rat): 27.5 µM
3 | C[C@@H](c1ccccc1)N(CC(=O)N(CCCCN)CC(=O)N(CCc1c[nH]c2ccccc12)CC(=O)N(CCc1c[nH]c2ccccc12)CC(N)=O)C(=O)CN(CCCCN)C(=O)CN(CCCCN)C(=O)CN(C(=O)CN(C(=O)CN(CCCCN)C(=O)CN(C(=O)CN(C(=O)CNCCCCN)[C@@H](C)c1ccccc1)[C@@H](C)c1ccccc1)[C@@H](C)c1ccccc1)[C@@H](C)c1ccccc1 [peptoid 29] (H-[Nlys][Nspe][Nspe][Nlys][Nspe][Nspe][Nlys][Nlys][Nspe][Nlys][Gly(N(CH2)2(3-indolyl))][Gly(N(CH2)2(3-indolyl))]-NH2) | 48.6 %ACN | 6.3 µM (≈ 11.7 µg/mL) |  | lower than that seen with more hydrophobic peptoids | somewhat lower | 9.8 ± 1.8% | > 100 µM | > 100 µM | 88.6 µM | 1.6 µM (≈ 2.98 µg/mL) | 3.1 µM (≈ 5.78 µg/mL) | 6.3 µM (≈ 11.7 µg/mL) | HC50 [1]: > 100 µM; MIC S. aureus ATCC25923 ([5]; ATCC 25923): 12.5 µM (≈ 23.3 µg/mL)
